# Data published in US10471118B2, “Retinylamine derivitives for treatment of ocular disorders” (CASE WESTERN RESERVE UNIVERSITY, priority 2014, dated 2019).
# Assays:
# [1] = Biodistribution of N-retinylamides and retinylamine derivatives in liver and eye after oral gavage; type: in vivo, mouse; details: for original drug detected in the eye: 2 h and 16 h
# Description: Female C57BL mice (4-week-old) were randomly divided into seven groups, six treated groups and one control group. Free Ret-NH2 (3.5 μmol per mouse, dissolved in DMSO and dispersed in vegetable oil) or retinylamine derivatives (Ret-Gly, Ret-L-Val-Gly, Ret-L-Phe, Ret-L-Leu, Ret-L-Val, 3.5 μmol per mouse, dissolved in DMSO and dispersed in vegetable oil) was administered by gastric gavage, control group was only gavaged vegetable oil. Then at each predetermined time point (2 and 16 h after drug administration), 3 mice were sacrificed. The liver and eye balls were collected to determine tissue N-retinylamide content for pharmacokinetic analysis. A portion of the liver tissue (0.3-0.5 g) was weighed, homogenized in 2 mL 1:1 ethanol:PBS solution and the eye balls were similarly processed (eye balls were combined for 3 mice). N-Retinylamides were extracted in 4 mL hexane, concentrated, and reconstituted to a 300 μL volume for liver (200 μL for eye). Normal-phase HPLC (Agilent-Zorbax SIL; 5 μm; 4.5×250 mm; flow rate of 1.4 mL/min; 80:20 hexane:ethyl acetate (v:v); detection at 325 nm) was utilized to determine N-retinylamide concentration in these tissues.
# Female C57BL mice (4-week-old) were randomly divided into seven groups, six treated groups and one control group. Free Ret-NH2 (3.5 μmol per mouse, dissolved in DMSO and dispersed in vegetable oil) or retinylamine derivative (Ret-Gly, Ret-L-Val-Gly, Ret-L-Phe, Ret-L-Leu, Ret-L-Val, 3.5 μmol per mouse, dissolved in DMSO and dispersed in vegetable oil) was administered by gastric gavage, control group was only gavaged vegetable oil. Then at each predetermined time point (2 and 16 h after drug administration), 3 mice were sacrificed. The liver and eye balls were collected to determine tissue drug content for pharmacokinetic analysis. A portion of the liver tissue (0.3-0.5 g) was weighed, homogenized in 2 mL 1:1 ethanol:PBS solution and the eye balls were similarly processed. Retinylamine or its derivative was extracted in 4 mL ethyl acetate, concentrated, and reconstituted to a 300 μL volume for liver (200 μL for eye). Reverse-phase HPLC (analytical C18 reverse column; 5 μm; 250 mm×4.6 mm; flow rate of 1.0 mL/min; 60:40 acetonitrile:H2O (v:v) with 0.05% trifluoroacetic acid; detection at 325 nm) was utilized to determine retinylamine or its derivative in these tissues. […]
# No N-retinylamides were detected in the eye at 2 h for all treated mice. The concentration of N-retinylamides in the liver of all treated mice increased at 16 h post-treatment. […] The concentrations of the original drugs were also determined in the liver and eye at 2 h and 16 h (FIGS. 7C, D). All tested drugs, including Ret-NH2, were detected in liver and their concentrations decreased from 2 h to 16 h.
# RPE65 = target: T1, RPE65 (Mus musculus, UniProt Q91ZQ5); experiment: In vivo RPE65 inhibition: 11-cis-retinal regeneration after photo-bleach; details: 1.75 μmol per mouse oral 16 h prior to photo-bleach (7000 lux, 10 min), 24 h dark
# T1 sequence (Q91ZQ5 2-533 limits assumed): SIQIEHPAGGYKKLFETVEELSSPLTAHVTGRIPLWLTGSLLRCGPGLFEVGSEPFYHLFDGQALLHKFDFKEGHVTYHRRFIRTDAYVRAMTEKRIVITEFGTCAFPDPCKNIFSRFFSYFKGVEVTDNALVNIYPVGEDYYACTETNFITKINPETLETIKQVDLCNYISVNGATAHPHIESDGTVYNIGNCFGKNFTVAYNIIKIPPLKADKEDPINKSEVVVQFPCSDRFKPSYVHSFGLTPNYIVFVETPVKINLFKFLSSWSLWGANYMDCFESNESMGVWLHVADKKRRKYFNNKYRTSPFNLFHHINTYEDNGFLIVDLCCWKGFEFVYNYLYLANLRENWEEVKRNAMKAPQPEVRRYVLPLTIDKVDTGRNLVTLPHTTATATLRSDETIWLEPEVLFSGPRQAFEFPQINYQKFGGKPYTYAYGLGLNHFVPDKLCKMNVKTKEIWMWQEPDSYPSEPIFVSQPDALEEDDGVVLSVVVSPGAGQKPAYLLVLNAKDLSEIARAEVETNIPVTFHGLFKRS
# Description: The retinylamine derivatives (31 RVG and 3b RF) or Ret-NH2 were administered by oral gavage at same mole dose 1.75 μmol per mouse into dark-adapted C57BLwild-type female mice (n=3) at 16 h prior to photo-bleach. After photo-bleach (7000 lux, 10 min), mice were kept the dark room for 24 h to allow the visual cycle to recovery. Mice were then sacrificed and eyes were extracted for analysis. Mice without treatment prior to photo-bleach were set as control. Retinoid extraction was done by manually homogenizing eyes in 1 mL of 1:1 ethanol:PBS solution containing 40 mM hydroxylamine. Retinoids were extracted in 4 mL hexane, concentrated, and reconstituted to a volume of 200 μL. Normal-phase HPLC (Agilent-Zorbax SIL; 5 μm; 4.5×250 mm; flow rate of 1.4 mL/min; 90:10 hexane:ethyl acetate (v:v); detection at 325 nm) was utilized to analyze retinoid concentrations. In vivo RPE65 inhibition was analyzed by quantifying the amount of 11-cis-retinal within each eye.
# [2] = All-trans-retinal Schiff base formation; details: 0.2 mM drug with all-trans-retinal in ethanol 2 h at room temperature
# Description: Incubate Ret-NH2 and retinylamine derivatives RVG, RF (0.2 mM) with all-trans-retinal (2 mM) in ethanol 2 h at room temperature, retinyl imines separated by reverse phase HPLC were identified on the basis of both their characteristic UV-vis spectra upon protonation and spectra obtained by mass spectrometry (MS). HPLC condition: analytical C18 reverse column; 5 μm; 250 mm×4.6 mm; flow rate of 0.5 mL/min; mobile phase acetonitrile:H2O (v:v) with 0.05% trifluoroacetic acid (0-15 min acetonitrile from 50% to 100%, 15-30 min 100% acetonitrile); detection at 325 nm.
# C57BL/6J wild-type mice = experiment: ERG retinal function in C57BL/6J wild-type mice after oral gavage; type: in vivo; details: 1.75 μmol per mouse oral; for ERG signal compared with nontreated control: 6 h post-treatment; for ERG signal compared with untreated control: 24 h post treatment
# Description: All ERG procedures were performed by published methods. For single-flash recording, the duration of white-light flash stimuli (from 20 μs to 1 ms) was adjusted to provide a range of illumination intensities (from −3.7 to 1.6 log cd s m-2). Three to five recordings were made at sufficient intervals between flash stimuli (from 3 s to 1 min) to allow recovery from any photobleaching effects.
# Strong inhibition of retinoid cycle could cause temporary vision impairment. Electroretinograms (ERGs) were recorded to in retinal function in C57BL/6J wild-type mice at 6 and 24 h after oral gavage of RVG, RF or Ret-NH2 at a dose of 1.75 μmol per mouse.
# [3] = 3.5 μmol per mouse oral, C57BL mice, 16 h
original drug detected in the eye ([1]; 3.5 μmol per mouse oral),ERG signal compared with nontreated control (C57BL/6J wild-type mice),"N-retinylamides in the eye [1, 3]",ERG signal in the retina (C57BL/6J wild-type mice; first 24 h after the treatment),Structure (SMILES),metabolism in the eye ([1]; conclusion from biodistribution at 2 h and 16 h),regeneration of 11-cis-retinal in the eye (RPE65),Schiff base formation with atRAL [2],ERG signal compared with untreated control (C57BL/6J wild-type mice),"liver concentration of N-retinylamides [1, 3]"
only detected at 2 h,attenuated ERG signal,,,"CC1=C(/C=C/C(C)=C/C=C/C(C)=C/CNC(=O)[C@@H](N)Cc2ccccc2)C(C)(C)CCC1 [RF, (S)-2-amino-N-((2E,4E,6E,8E)-3,7-dimethyl-9-(2,6,6-trimethylcyclohex-1-en-1-yl)nona-2,4,6,8-tetraen-1-yl)-3-phenylpropanamide]",rapidly metabolized into inactive N-retinylamides in the eye,"faster regeneration of 11-cis-retinal in the eye, and weaker inhibition of retinoid cycle than Ret-NH2",able to form Schiff base with atRAL,recover to the magnitude of the untreated control mice,
only detected at 16 h,attenuated ERG signal,no detectable N-retinylamides in the eye,,"CC1=C(/C=C/C(C)=C/C=C/C(C)=C/CNC(=O)[C@@H](NC(=O)CN)C(C)C)C(C)(C)CCC1 [RVG, (S)-2-(2-aminoacetamido)-N-((2E,4E,6E,8E)-3,7-dimethyl-9-(2,6,6-trimethylcyclohex-1-en-1-yl)nona-2,4,6,8-tetraen-1-yl)-3-methylbutanamide]",,"faster regeneration of 11-cis-retinal in the eye, and weaker inhibition of retinoid cycle than Ret-NH2",able to form Schiff base with atRAL,recover to the magnitude of the untreated control mice,lower liver concentration of N-retinylamides than RF and RL
No free Ret-NH2 was detected in the eye,,,no significant ERG signal was detected,"CC1=C(/C=C/C(C)=C/C=C/C(C)=C/CN)C(C)(C)CCC1 [Ret-NH2, (2E,4E,6E,8E)-3,7-dimethyl-9-(2,6,6-trimethylcyclohex-1-en-1-yl)nona-2,4,6,8-tetraen-1-amine]",,much lower concentration of 11-cis-retinal than the untreated controls,able to form Schiff base with atRAL,,
